According to ChEMBL document CHEMBL5465560, “Selectivity Literature for EUbOPEN Chemogenomic Library” (2024):
Values belong to the compound of their own block, whether it stands above or below them. Non-standard residues stand in square brackets, D forms with d. Residues, ends and D or L forms follow the SMILES beside them. Arg(Me) = CNC(=N)NCCC[C@H](N)C(=O)O; d3Pal = N[C@H](Cc1cccnc1)C(=O)O; azaGly = NNC(=O)O

Key:
[1] = molecular target: Mitogen-activated protein kinase kinase kinase kinase 5 (Homo sapiens) (UniProt Q9Y4K4); assay: Selectivity interaction (33PanQinase Assay (Reaction Biology)) EUB0001107a MAP4K5
[2] = molecular target: Serine/threonine-protein kinase PAK 2 (Homo sapiens) (UniProt Q13177); assay: Selectivity interaction (33PanQinase Assay (Reaction Biology)) EUB0001107a PAK2
[3] = molecular target: Serine/threonine-protein kinase PAK 3 (Homo sapiens) (UniProt O75914); assay: Selectivity interaction (33PanQinase Assay (Reaction Biology)) EUB0001107a PAK3
[4] = molecular target: T1, Cytoplasmic tyrosine-protein kinase BMX (Homo sapiens) (UniProt P51813); assay: Selectivity interaction (KinomeScan (DiscoverX)) EUB0001068a BMX; conditions: at 1 µM
T1 sequence (whole entry): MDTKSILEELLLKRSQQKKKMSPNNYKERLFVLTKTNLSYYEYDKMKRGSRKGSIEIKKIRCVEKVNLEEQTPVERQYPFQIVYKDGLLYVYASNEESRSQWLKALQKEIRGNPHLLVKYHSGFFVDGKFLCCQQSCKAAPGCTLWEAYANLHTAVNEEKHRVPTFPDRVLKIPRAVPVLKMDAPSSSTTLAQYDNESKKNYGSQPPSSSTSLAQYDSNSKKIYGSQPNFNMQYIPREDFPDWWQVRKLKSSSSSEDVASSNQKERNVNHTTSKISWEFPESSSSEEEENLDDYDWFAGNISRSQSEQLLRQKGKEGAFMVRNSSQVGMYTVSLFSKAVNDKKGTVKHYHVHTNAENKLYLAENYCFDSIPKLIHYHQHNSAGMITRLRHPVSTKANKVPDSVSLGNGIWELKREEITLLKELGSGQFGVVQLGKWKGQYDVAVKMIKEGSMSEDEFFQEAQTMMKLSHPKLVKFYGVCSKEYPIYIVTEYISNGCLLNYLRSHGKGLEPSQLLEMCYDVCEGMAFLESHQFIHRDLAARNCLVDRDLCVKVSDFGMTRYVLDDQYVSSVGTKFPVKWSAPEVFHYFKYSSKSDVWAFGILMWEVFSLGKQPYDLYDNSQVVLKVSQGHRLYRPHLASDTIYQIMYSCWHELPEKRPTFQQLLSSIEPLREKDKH

[5] = molecular target: T2, Serine/threonine-protein kinase Nek1 (Homo sapiens) (UniProt Q96PY6); assay: Selectivity interaction (KinomeScan (DiscoverX)) EUB0001068a NEK1; conditions: at 1 µM
T2 sequence (whole entry): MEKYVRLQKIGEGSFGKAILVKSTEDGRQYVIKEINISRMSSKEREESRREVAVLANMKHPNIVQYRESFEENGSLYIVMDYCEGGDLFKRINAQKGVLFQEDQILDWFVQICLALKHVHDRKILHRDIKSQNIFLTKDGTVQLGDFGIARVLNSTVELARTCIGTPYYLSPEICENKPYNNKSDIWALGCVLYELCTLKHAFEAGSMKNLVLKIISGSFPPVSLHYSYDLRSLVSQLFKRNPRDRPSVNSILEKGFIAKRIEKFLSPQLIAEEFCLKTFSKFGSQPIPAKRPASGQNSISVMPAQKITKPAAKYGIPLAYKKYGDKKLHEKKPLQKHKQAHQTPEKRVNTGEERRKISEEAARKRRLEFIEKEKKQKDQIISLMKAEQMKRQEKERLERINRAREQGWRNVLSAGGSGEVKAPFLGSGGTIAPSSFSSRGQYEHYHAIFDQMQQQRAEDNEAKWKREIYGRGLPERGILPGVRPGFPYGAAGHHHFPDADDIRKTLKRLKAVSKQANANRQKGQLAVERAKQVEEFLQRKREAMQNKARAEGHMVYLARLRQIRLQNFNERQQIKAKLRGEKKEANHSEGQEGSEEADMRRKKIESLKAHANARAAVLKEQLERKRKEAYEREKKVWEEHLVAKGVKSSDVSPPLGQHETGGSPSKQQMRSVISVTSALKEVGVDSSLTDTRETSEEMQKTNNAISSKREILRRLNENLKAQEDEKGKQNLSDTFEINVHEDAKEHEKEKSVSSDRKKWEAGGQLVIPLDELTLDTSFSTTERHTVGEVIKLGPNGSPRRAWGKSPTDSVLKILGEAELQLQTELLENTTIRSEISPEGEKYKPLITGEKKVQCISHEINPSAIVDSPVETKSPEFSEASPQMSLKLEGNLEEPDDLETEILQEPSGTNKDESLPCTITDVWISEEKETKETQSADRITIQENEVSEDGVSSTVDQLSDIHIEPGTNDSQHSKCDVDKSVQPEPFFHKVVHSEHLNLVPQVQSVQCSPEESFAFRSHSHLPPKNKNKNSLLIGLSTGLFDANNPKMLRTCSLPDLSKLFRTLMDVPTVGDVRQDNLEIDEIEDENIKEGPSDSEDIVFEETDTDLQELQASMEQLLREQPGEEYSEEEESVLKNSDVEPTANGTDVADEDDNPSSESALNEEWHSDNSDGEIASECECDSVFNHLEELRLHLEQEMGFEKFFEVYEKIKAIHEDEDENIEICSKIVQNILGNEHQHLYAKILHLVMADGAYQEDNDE

[6] = molecular target: Serine/threonine-protein kinase 38-like (Homo sapiens) (UniProt Q9Y2H1); assay: Selectivity interaction (KinomeScan (DiscoverX)) EUB0001068a STK38L; conditions: at 1 µM
[7] = molecular target: Alpha-2B adrenergic receptor (Homo sapiens) (UniProt P18089); assay: Selectivity interaction (GPCR panel (PDSP screen)) EUB0001072a ADRA2B; conditions: at 10 µM
[8] = molecular target: T3, Muscarinic acetylcholine receptor M1 (Homo sapiens) (UniProt P11229); assay: Selectivity interaction (GPCR panel (PDSP screen)) EUB0001072a CHRM1; conditions: at 10 µM
T3 sequence (whole entry): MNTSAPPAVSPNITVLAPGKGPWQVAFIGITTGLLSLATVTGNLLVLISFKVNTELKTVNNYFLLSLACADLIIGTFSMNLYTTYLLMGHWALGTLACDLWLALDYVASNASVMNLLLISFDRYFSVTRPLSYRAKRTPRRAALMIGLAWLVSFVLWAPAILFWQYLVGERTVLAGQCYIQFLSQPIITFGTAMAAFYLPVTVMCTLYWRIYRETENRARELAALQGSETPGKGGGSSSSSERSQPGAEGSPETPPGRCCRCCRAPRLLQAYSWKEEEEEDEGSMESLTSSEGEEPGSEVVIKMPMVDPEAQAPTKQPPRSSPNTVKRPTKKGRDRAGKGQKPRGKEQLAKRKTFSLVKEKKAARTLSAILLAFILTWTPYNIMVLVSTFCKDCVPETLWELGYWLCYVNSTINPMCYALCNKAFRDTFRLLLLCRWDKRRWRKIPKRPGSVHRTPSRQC

[9] = molecular target: T4, Muscarinic acetylcholine receptor M2 (Homo sapiens) (UniProt P08172); assay: Selectivity interaction (GPCR panel (PDSP screen)) EUB0001072a CHRM2; conditions: at 10 µM
T4 sequence (whole entry): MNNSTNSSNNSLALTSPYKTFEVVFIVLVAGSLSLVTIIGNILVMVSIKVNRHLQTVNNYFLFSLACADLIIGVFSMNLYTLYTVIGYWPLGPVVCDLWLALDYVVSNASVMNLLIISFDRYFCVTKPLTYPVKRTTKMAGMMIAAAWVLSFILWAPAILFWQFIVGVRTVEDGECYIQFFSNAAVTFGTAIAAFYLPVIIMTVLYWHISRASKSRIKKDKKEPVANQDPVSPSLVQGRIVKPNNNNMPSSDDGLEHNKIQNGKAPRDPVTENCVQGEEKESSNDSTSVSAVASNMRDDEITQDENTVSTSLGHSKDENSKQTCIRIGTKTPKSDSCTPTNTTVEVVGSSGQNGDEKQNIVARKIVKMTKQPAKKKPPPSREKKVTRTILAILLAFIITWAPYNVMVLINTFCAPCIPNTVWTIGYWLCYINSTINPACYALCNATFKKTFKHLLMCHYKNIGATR

[10] = molecular target: Muscarinic acetylcholine receptor M3 (Homo sapiens, UniProt P20309); assay: Selectivity interaction (GPCR panel (PDSP screen)) EUB0001072a CHRM3; conditions: at 10 µM
[11] = molecular target: Muscarinic acetylcholine receptor M4 (Homo sapiens) (UniProt P08173); assay: Selectivity interaction (GPCR panel (PDSP screen)) EUB0001072a CHRM4; conditions: at 10 µM
[12] = molecular target: Muscarinic acetylcholine receptor M5 (Homo sapiens) (UniProt P08912); assay: Selectivity interaction (GPCR panel (PDSP screen)) EUB0001072a CHRM5; conditions: at 10 µM
[13] = molecular target: D(1B) dopamine receptor (Homo sapiens) (UniProt P21918); assay: Selectivity interaction (GPCR panel (PDSP screen)) EUB0001072a DRD5; conditions: at 10 µM
[14] = molecular target: 4-aminobutyrate aminotransferase, mitochondrial (Homo sapiens, UniProt P80404); assay: Selectivity interaction (GPCR panel (PDSP screen)) EUB0001072a ABAT; conditions: at 10 µM
[15] = molecular target: T5, Gamma-aminobutyric acid receptor subunit alpha-1 (Homo sapiens) (UniProt P14867); assay: (§1) Selectivity interaction (GPCR panel (PDSP screen)) EUB0001072a GABRA1; conditions: at 10 µM
T5 sequence (whole entry): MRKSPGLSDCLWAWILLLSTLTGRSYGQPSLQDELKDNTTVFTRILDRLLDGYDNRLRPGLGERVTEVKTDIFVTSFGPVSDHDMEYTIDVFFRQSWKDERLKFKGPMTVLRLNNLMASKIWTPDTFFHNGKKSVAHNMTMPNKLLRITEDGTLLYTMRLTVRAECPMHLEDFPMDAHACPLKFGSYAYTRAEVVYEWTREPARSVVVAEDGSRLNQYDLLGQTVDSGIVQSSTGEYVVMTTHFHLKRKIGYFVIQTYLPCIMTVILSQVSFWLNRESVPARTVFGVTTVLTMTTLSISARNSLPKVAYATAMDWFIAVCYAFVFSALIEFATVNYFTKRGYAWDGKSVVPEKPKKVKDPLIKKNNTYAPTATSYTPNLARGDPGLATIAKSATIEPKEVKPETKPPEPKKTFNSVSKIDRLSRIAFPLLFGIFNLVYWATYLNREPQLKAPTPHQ

[16] = molecular target: T5, Gamma-aminobutyric acid receptor subunit alpha-1 (Homo sapiens); assay: as §1; conditions: at 10 µM; remark: listed apart in the source
Histamine H3 receptor = Histamine H3 receptor (Homo sapiens, UniProt Q9Y5N1); assay: Selectivity interaction (GPCR panel (PDSP screen)) EUB0001072a HRH3; conditions: at 10 µM
[17] = molecular target: T6, 5-hydroxytryptamine receptor 1A (Homo sapiens) (UniProt P08908); assay: Selectivity interaction (GPCR panel (PDSP screen)) EUB0001072a HTR1A; conditions: at 10 µM
T6 sequence (whole entry): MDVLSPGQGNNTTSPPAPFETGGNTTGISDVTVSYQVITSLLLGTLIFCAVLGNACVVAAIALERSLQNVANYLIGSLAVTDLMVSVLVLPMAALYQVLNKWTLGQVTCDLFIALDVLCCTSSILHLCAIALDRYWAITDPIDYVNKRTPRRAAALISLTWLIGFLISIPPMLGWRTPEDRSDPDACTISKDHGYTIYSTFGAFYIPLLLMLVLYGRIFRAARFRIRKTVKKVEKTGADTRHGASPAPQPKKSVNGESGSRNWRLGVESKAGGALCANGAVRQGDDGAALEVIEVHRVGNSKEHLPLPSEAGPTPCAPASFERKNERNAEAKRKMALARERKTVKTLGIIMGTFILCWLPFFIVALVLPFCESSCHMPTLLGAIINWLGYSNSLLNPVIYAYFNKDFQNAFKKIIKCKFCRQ

[18] = molecular target: 5-hydroxytryptamine receptor 1B (Homo sapiens) (UniProt P28222); assay: Selectivity interaction (GPCR panel (PDSP screen)) EUB0001072a HTR1B; conditions: at 10 µM
[19] = molecular target: 5-hydroxytryptamine receptor 1D (Homo sapiens) (UniProt P28221); assay: Selectivity interaction (GPCR panel (PDSP screen)) EUB0001072a HTR1D; conditions: at 10 µM
[20] = molecular target: 5-hydroxytryptamine receptor 1E (Homo sapiens) (UniProt P28566); assay: Selectivity interaction (GPCR panel (PDSP screen)) EUB0001072a HTR1E; conditions: at 10 µM
[21] = molecular target: 5-hydroxytryptamine receptor 2A (Homo sapiens, UniProt P28223); assay: Selectivity interaction (GPCR panel (PDSP screen)) EUB0001072a HTR2A; conditions: at 10 µM
[22] = molecular target: 5-hydroxytryptamine receptor 2B (Homo sapiens, UniProt P41595); assay: Selectivity interaction (GPCR panel (PDSP screen)) EUB0001072a HTR2B; conditions: at 10 µM
[23] = molecular target: 5-hydroxytryptamine receptor 5A (Homo sapiens) (UniProt P47898); assay: Selectivity interaction (GPCR panel (PDSP screen)) EUB0001072a HTR5A; conditions: at 10 µM
[24] = molecular target: Sodium-dependent dopamine transporter (Homo sapiens, UniProt Q01959); assay: Selectivity interaction (GPCR panel (PDSP screen)) EUB0001072a SLC6A3; conditions: at 10 µM
Sodium-dependent dopamine transporter, sequence (Q01959 whole entry): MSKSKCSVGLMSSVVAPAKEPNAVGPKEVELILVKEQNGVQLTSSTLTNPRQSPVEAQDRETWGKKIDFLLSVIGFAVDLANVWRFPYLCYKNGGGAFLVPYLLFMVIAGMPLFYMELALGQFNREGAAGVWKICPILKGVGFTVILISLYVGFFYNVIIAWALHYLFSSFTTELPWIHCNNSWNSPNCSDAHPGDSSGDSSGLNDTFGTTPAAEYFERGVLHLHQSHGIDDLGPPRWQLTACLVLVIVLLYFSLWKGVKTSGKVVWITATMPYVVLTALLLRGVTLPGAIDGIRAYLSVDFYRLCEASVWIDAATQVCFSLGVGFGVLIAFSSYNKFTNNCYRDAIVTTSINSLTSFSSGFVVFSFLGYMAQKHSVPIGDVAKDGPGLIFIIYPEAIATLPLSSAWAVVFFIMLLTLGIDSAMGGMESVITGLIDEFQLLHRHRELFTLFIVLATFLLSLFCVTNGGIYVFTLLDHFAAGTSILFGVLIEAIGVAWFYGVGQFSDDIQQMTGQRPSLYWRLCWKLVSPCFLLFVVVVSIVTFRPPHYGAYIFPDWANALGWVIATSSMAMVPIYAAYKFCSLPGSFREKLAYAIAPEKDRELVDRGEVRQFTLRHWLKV

Serine/threonine-protein kinase PAK 2 (Homo sapiens), sequence (Q13177 whole entry): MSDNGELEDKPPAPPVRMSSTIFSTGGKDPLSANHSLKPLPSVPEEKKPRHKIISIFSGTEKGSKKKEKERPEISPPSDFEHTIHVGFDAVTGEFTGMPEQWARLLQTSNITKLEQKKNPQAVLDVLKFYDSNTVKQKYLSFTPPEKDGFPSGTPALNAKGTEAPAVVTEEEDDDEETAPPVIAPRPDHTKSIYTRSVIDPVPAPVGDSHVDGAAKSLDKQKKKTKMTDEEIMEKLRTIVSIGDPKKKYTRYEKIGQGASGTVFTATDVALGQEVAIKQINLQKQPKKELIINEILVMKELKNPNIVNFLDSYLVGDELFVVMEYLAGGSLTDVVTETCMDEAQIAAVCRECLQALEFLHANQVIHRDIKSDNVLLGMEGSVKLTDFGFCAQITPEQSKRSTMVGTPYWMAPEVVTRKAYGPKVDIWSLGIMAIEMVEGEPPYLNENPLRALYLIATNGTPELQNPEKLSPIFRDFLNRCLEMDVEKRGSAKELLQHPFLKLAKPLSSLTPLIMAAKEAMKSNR
5-hydroxytryptamine receptor 1E (Homo sapiens), sequence (P28566 whole entry): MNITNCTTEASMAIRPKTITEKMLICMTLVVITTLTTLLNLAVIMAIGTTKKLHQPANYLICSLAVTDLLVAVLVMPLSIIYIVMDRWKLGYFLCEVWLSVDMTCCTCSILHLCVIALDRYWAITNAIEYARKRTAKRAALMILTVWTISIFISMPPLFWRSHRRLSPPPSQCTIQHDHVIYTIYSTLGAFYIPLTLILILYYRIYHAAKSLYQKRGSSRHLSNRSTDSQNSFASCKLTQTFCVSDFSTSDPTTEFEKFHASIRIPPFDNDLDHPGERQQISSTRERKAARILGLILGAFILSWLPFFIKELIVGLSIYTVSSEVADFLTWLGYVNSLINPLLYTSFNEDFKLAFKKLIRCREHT
Muscarinic acetylcholine receptor M4 (Homo sapiens), sequence (P08173 whole entry): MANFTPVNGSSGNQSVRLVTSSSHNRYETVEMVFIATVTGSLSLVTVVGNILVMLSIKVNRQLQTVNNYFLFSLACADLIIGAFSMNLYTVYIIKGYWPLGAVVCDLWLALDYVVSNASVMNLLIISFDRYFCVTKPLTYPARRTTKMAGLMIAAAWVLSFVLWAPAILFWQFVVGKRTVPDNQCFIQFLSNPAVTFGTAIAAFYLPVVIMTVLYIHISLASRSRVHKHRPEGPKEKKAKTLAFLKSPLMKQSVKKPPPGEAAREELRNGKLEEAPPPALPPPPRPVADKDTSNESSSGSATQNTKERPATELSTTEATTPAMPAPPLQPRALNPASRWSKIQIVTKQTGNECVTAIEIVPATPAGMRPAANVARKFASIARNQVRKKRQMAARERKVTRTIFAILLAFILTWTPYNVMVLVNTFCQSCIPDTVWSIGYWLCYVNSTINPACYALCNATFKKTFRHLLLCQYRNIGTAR
Muscarinic acetylcholine receptor M5 (Homo sapiens), sequence (P08912 whole entry): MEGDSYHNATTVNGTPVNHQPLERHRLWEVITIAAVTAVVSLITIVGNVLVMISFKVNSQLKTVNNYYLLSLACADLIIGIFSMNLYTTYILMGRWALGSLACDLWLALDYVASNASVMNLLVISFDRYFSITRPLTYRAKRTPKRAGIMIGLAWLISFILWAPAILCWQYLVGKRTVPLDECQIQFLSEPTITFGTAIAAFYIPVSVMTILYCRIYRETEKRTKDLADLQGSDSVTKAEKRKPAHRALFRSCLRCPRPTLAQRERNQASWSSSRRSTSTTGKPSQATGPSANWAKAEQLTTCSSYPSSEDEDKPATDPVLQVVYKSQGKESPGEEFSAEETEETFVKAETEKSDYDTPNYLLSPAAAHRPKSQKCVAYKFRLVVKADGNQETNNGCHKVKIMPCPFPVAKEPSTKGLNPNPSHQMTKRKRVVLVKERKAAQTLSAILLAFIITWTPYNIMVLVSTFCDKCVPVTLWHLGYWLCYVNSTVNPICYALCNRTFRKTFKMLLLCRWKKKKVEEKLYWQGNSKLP
Serine/threonine-protein kinase PAK 3 (Homo sapiens), sequence (O75914 whole entry, looked up): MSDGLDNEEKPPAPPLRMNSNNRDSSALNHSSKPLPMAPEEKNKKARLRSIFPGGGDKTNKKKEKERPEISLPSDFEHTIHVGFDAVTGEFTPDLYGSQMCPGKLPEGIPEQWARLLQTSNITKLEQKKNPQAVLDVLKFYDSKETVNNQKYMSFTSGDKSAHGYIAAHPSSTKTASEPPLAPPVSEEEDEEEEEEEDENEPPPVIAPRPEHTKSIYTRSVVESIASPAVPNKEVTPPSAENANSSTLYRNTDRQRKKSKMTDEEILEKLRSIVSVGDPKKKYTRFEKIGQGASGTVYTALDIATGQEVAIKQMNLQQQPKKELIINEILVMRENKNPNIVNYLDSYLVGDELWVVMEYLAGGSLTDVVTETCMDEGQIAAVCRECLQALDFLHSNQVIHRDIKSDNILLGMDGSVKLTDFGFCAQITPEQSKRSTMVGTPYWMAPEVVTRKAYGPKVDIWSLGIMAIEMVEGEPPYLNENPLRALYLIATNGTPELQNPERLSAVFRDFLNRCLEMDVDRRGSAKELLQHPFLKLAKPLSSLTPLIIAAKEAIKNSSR
5-hydroxytryptamine receptor 5A (Homo sapiens), sequence (P47898 whole entry): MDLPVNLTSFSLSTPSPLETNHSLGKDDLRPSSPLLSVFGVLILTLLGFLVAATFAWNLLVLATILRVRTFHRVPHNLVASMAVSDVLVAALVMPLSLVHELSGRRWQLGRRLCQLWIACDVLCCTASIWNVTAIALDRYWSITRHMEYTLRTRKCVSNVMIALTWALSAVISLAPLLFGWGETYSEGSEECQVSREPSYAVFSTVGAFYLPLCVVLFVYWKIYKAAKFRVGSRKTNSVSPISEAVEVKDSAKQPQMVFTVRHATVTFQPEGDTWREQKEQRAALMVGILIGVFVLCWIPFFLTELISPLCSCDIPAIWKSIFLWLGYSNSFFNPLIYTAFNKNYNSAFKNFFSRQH
5-hydroxytryptamine receptor 2B, sequence (P41595 whole entry): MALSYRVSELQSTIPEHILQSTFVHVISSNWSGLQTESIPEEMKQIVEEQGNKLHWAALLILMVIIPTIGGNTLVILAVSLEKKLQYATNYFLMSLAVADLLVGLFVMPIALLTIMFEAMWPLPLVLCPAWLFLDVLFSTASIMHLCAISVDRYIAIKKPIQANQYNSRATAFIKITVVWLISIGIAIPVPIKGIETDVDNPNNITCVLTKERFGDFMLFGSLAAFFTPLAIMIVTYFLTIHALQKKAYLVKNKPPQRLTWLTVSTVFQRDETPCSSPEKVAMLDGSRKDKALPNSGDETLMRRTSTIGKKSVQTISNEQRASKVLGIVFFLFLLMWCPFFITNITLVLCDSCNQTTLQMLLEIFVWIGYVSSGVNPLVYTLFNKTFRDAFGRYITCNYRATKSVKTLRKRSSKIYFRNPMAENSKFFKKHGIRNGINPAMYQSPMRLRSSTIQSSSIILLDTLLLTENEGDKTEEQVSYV
Histamine H3 receptor, sequence (Q9Y5N1 whole entry): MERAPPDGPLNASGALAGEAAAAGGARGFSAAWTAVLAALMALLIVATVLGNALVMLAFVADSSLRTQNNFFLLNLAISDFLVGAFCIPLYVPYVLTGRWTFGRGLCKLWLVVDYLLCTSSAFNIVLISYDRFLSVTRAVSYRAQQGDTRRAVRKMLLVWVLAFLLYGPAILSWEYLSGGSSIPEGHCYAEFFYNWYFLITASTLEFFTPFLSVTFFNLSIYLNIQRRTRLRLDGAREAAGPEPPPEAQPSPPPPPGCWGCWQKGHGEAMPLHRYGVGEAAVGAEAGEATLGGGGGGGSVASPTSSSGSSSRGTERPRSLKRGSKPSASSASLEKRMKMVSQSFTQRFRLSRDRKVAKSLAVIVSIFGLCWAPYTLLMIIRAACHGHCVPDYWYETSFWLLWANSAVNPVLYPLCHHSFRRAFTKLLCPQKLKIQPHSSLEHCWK
Alpha-2B adrenergic receptor (Homo sapiens), sequence (P18089 whole entry): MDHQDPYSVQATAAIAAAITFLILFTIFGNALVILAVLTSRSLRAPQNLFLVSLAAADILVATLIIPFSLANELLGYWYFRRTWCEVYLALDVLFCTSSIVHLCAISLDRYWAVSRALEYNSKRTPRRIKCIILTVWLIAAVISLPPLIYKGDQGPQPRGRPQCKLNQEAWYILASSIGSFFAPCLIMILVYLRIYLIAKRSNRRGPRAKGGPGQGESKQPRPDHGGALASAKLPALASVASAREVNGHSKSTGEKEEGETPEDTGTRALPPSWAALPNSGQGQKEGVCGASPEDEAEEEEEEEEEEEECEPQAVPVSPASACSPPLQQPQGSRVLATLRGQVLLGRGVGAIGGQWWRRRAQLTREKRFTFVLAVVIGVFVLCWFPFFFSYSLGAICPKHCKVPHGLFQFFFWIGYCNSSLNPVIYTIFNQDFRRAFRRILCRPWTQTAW

- % of residual activity [1]: 8%
- % of residual activity [2]: 10%
- % of residual activity [3]: 9%
Compound: CNc1ncc2cc(-c3ccc(-c4ncccc4F)cc3Cl)c(=O)n(C[C@H]3OC[C@H](N)CO3)c2n1

- % of control [4]: 50%
- % of control [5]: 45%
- % of control [6]: 47%
Compound: CN(C(=O)c1ccccc1)c1cc(N(C)c2ccc3c(c2)CCc2ccc(C(=O)NCCN4CCOCC4)cc2C3=O)ccc1F

Compound: CNC(=N)NCCC[C@H](NC(=O)[C@H](CC(C)C)NC(=O)NNC(=O)[C@H](Cc1ccccc1)NC(=O)[C@H](CO)NC(=O)[C@H](CC(N)=O)NC(=O)[C@@H](Cc1cccnc1)NC(=O)[C@H](N)Cc1ccc(O)cc1)C(=O)NCC(N)=O (H-[dY][d3Pal]NSF[azaGly]L[Arg(Me)]G-NH2)
- % of inhibition [7]: 14.5%
- % of inhibition [8]: 15.1%
- % of inhibition [9]: 40.7%
- % of inhibition [10]: 24.7%
- % of inhibition [11]: 18.5%
- % of inhibition [12]: 12.3%
- % of inhibition [13]: 29.2%
- % of inhibition [14]: 15.6%
- % of inhibition [15]: 15.5%
- % of inhibition [16]: 12.3%
- % of inhibition (Histamine H3 receptor): 12.5%
- % of inhibition [17]: 30.9%
- % of inhibition [18]: 31%
- % of inhibition [19]: 12.4%
- % of inhibition [20]: 27.9%
- % of inhibition [21]: 16.9%
- % of inhibition [22]: 11.3%
- % of inhibition [23]: 16.3%
- % of inhibition [24]: 10.4%
